Measurements taken from PMC7577125 (Antimicrobial Agents and Chemotherapy, 2020).
Like-named read-outs stand apart in the source and are kept apart here.

Assays:
HBV [1] = assay: Extracellular HBV DNA and pgRNA in HepAD38 cells (qPCR, RT-qPCR); type: cell-based, Hepatitis B virus; conditions: for Extracellular DNA content (% of DMSO control) / Extracellular pgRNA content (% of DMSO control): HepAD38, concn ETV 0.01, ABI-H0731 2.0, GLS4 0.5, NVR 3-778 2.5, AT-130 0.8, VRD-32 0.8 μM
From the text: For HBV RNA Northern blot analysis, total cellular RNA or encapsidated pgRNA samples were resolved in a 1.5% agarose gel containing 2.2 M formaldehyde and transferred onto a Hybond-XL membrane (GE Healthcare). For DNA Southern blot analysis, HBV core DNA or cccDNA samples were resolved by electrophoresis in a 1.2% agarose gel and blotted onto a Hybond-XL membrane. Membranes were probed with either an [α-^32P]UTP (3,000 Ci/mmol; PerkinElmer)-labeled plus-strand-specific (for Northern blot hybridization) or minus-strand-specific (for Southern blot hybridization) HBV riboprobe and exposed to a phosphorimager screen. Extracellular HBV DNA and RNA were copurified from the culture medium of induced HepAD38 cells by using a MinElute virus vacuum kit (Qiagen). Viral DNA was quantified using the above-mentioned qPCR method directly, and HBV RNA was detected by RT-qPCR with the same core region primer/probe set after the removal of DNA contamination by DNase I (Thermo Fisher) treatment.

HBV [2] = assay: Dose response of ETV and ABI-H0731 alone and in combination in induced HepAD38 cells; type: cell-based, Hepatitis B virus; conditions: 100× VR EC50 of ETV
Procedure: Viral replication was evaluated by quantifying the levels of total HBV DNA in the cells by qPCR. […] In both cases, the data are plotted as a function of each drug’s concentration relative to its VR EC50.

HBV capsid DNA [3] = assay: Incoming capsid assay in PHH cells; type: cell-based; conditions: Hepatitis B virus, 0.10 μM, 3 h, read-out: Capsid DNA % of Control
HBV Cp Wild type = assay: microbe, parasite or virus in culture; type: cell-based, Hepatitis B virus; conditions: Hepatitis B virus, Huh-7, read-out: Mean EC50
HBV Cp I105L = assay: microbe, parasite or virus in culture; type: cell-based, Hepatitis B virus; conditions: Hepatitis B virus, Huh-7, read-out: Mean EC50
HBV Cp Y38C = assay: microbe, parasite or virus in culture; type: cell-based, Hepatitis B virus; conditions: Hepatitis B virus, Huh-7, read-out: Mean EC50
HBV genotype C = assay: microbe, parasite or virus in culture; type: cell-based; conditions: Hepatitis B virus, read-out: Mean antiviral EC50
HBV [4] = assay: De novo infection models (HepG2-NTCP and PHH), summary; type: cell-based, Hepatitis B virus; conditions: HepG2-NTCP and PHH cells, tested at up to 100 nM
HBV [5] = assay: HBV infection of primary human hepatocytes (PHHs); type: cell-based; conditions: Hepatitis B virus, Hepatocyte, PHH
HBV cccDNA [6] = assay: cccDNA formation assay in infected PHH cells (Southern blot); type: cell-based; conditions: Hepatitis B virus, 96 h, 0.10 μM, 4 days, read-out: cccDNA % of Control
HBV Cp T33N = assay: microbe, parasite or virus in culture; type: cell-based, Hepatitis B virus; conditions: Hepatitis B virus, Huh-7, read-out: Mean EC50
[7] = system: HBV (genotype D, subtype ayw); assay: HBV replication assay in HepAD38 cells; type: cell-based, Hepatitis B virus
HBV genotype B = assay: microbe, parasite or virus in culture; type: cell-based; conditions: Hepatitis B virus, read-out: Mean antiviral EC50
HBV Cp T109I = assay: microbe, parasite or virus in culture; type: cell-based, Hepatitis B virus; conditions: Hepatitis B virus, Huh-7, read-out: Mean EC50
[8] = system: HBV genotypes A, B, C, and D; assay: microbe, parasite or virus in culture; type: cell-based; conditions: Hepatitis B virus, read-out: VR EC50s
HBV [9] = assay: HBV infection of HepG2-NTCP cells; type: cell-based; conditions: Hepatitis B virus
HBV Cp Y118F = assay: microbe, parasite or virus in culture; type: cell-based, Hepatitis B virus; conditions: Hepatitis B virus, Huh-7, read-out: Mean EC50
HBV Cp I105T = assay: microbe, parasite or virus in culture; type: cell-based, Hepatitis B virus; conditions: Hepatitis B virus, Huh-7, read-out: Mean EC50
HBV Cp D29G = assay: microbe, parasite or virus in culture; type: cell-based, Hepatitis B virus; conditions: Hepatitis B virus, Huh-7, read-out: Mean EC50
HBV cccDNA [10] = assay: cccDNA formation assay in infected HepG2-NTCP cells (Southern blot); type: cell-based; conditions: Hepatitis B virus, 96 h, 1.00 μM, 4 days, read-out: cccDNA % of Control
HBV capsid DNA [11] = assay: Incoming capsid assay in HepG2-NTCP cells; type: cell-based; conditions: Hepatitis B virus, 1.00 μM, 3 h, read-out: Capsid DNA % of Control
HBV genotype D = assay: microbe, parasite or virus in culture; type: cell-based; conditions: Hepatitis B virus, read-out: Mean antiviral EC50
HBV Cp T109M = assay: microbe, parasite or virus in culture; type: cell-based, Hepatitis B virus; conditions: Hepatitis B virus, Huh-7, read-out: Mean EC50
[12] = system: NrtI^R HBV (rtL180M/M204V); assay: microbe, parasite or virus in culture; type: cell-based, Hepatitis B virus; conditions: Hepatitis B virus
HBV genotype A = assay: microbe, parasite or virus in culture; type: cell-based; conditions: Hepatitis B virus, read-out: Mean antiviral EC50
HBV Cp Y38F = assay: microbe, parasite or virus in culture; type: cell-based, Hepatitis B virus; conditions: Hepatitis B virus, Huh-7, read-out: Mean EC50
HBV Cp P25A = assay: microbe, parasite or virus in culture; type: cell-based, Hepatitis B virus; conditions: Hepatitis B virus, Huh-7, read-out: Mean EC50
[13] = total intracellular viral DNA, read-out: Mean EC50, viral DNA

COc1ccccc1/C(Br)=C(/NC(=O)c1ccc([N+](=O)[O-])cc1)C(=O)N1CCCCC1 [AT-130]
Extracellular DNA content (% of DMSO control) (HBV [1]): 5.3 % of DMSO control
Extracellular pgRNA content (% of DMSO control) (HBV [1]): 8.6 % of DMSO control

C=C1[C@H](CO)[C@@H](O)C[C@@H]1n1cnc2c(=O)[nH]c(N)nc21 [ETV, entecavir]
reduction of HBV DNA levels (HBV [2]): ~1 log
HBV DNA levels (HBV [2]; control 2.2 × 10^6): 1.3 × 10^5 copies/μl
activity at 0.1 µM (HBV capsid DNA [3]): 86%
EC50 (HBV Cp Wild type): 1.9 ± 0.9 nM
secreted HBV DNA levels reduced by (HBV [1]; HepAD38, ETV 0.01 μM): 80%
Extracellular DNA content (% of DMSO control) (HBV [1]): 19.5 % of DMSO control
Extracellular pgRNA content (% of DMSO control) (HBV [1]): 170 % of DMSO control
EC50 (HBV Cp I105L): 0.4 ± 0.2 nM
EC50 (HBV Cp Y38C): 1.1 ± 0.5 nM
EC50 (HBV genotype C): 1.2 ± 0.1 nM
inhibition of viral antigen production (HBV [4]): weak and incomplete inhibition
EC50 (HBV [5]; read-out: Mean EC50, HBeAg): > 100 nM
EC50 (HBV [5]; read-out: Mean EC50, HBsAg): > 100 nM
EC50 (HBV [5]; read-out: Mean EC50, pgRNA): > 100 nM
EC50 (HBV [5]; [13]): < 0.1 nM
activity at 0.1 µM (HBV cccDNA [6]): 88%
EC50 (HBV Cp T33N): 3.5 ± 1.6 nM
EC50 ([7]; HepAD38, concomitantly determined with HepG2-NrtI^R, read-out: Mean EC50): 0.58 ± 0.15 nM
EC50 ([7]; Hepatitis B virus, HePAD38, HepAD38, concomitantly determined with HepG2-NrtI^R, read-out: Mean EC50): 0.6 nM
EC50 ([7]; Hepatitis B virus, HePAD38, HepAD38, total intracellular viral DNA, read-out: Mean EC50, viral DNA): 1.2 ± 0.3 nM
EC50 ([7]; Hepatitis B virus, HePAD38, comparison value of Figure S4 legend, read-out: EC50 against a wild-type strain): 1 nM
EC50 (HBV genotype B): 2.3 ± 0.5 nM
EC50 (HBV Cp T109I): 1.9 ± 0.6 nM
EC50 [8]: 1.2 to 5 nM
EC50 (HBV [9]; read-out: Mean EC50, HBeAg): > 100 nM
EC50 (HBV [9]; read-out: Mean EC50, HBsAg): > 100 nM
EC50 (HBV [9]; read-out: Mean EC50, pgRNA): > 100 nM
EC50 (HBV [9]; [13]): 0.8 nM
EC50 (HBV Cp Y118F): 1.5 ± 0.9 nM
EC50 (HBV Cp I105T): 0.5 ± 0.3 nM
EC50 (HBV Cp D29G): 0.6 ± 0.1 nM
activity at 1 µM (HBV cccDNA [10]): 85%
activity at 1 µM (HBV capsid DNA [11]): 90%
EC50 (HBV genotype D): 5 ± 1.9 nM
EC50 (HBV Cp T109M): 1.5 ± 0.3 nM
EC50 ([12]; 96 h, read-out: Mean EC50): 7.1 ± 1.2 nM
EC50 ([12]; 168 h, read-out: EC50 by Southern blot of intracellular viral core DNA): ~10 nM
EC50 (HBV genotype A): 1.9 ± 0.5 nM
EC50 (HBV Cp Y38F): 4.6 ± 0.6 nM
EC50 (HBV Cp P25A): 2.9 ± 0.3 nM
